Results as given in patent US11033600B2, “Protease transition state inhibitor prodrugs” (priority 2016, dated 2021).
Like-named read-outs stand apart in the source and are kept apart here.

Experiments:
[1] = molecular target: norovirus 3CL protease (NV 3CLpro) (Norovirus, UniProt Q83883); assay: FRET protease assay (3CL protease), enzyme inhibition; format: biochemical
Protocol: FRET protease assays. The FRET protease assay (3CL protease) was performed by preparing stock solutions of the substrate (Edans-DFHLQ/GP-Dabcyl, SEQ ID NO:1) and inhibitor in DMSO and diluting into assay buffer which was comprised of 20 mM HEPES buffer, pH 8, containing NaCl (200 mM), 0.4 mM EDTA, glycerol (60%), and 6 mM dithiothreitol (DTT). The protease was mixed with serial dilutions of each compound up to 100 μM or with DMSO in 25 μL of assay buffer and incubated at 37° C. for 30 min, followed by the addition of 25 μL of assay buffer containing substrate. Fluorescence readings were obtained using an excitation wavelength of 360 nm and an emission wavelength of 460 nm on a fluorescence microplate reader (FLx800; Biotec, Winoosk, Vt.) 1 h following the addition of substrate. Relative fluorescence units (RFU) were determined by subtracting background values (substrate-containing well without protease) from the raw fluorescence values. The dose-dependent FRET inhibition curves were fitted with a variable slope by using GraphPad Prism software (GraphPad, La Jolla, Calif.) in order to determine the IC50 values of the inhibitors.

[2] = tested on: NV in replicon harboring cells (HG23 cells); assay: Cell-based assay: virus replication in NV replicon harboring cells (HG23 cells), qRT-PCR; parameters: species or system norovirus (NV)
Protocol: The effects of each inhibitor on virus replication were examined against NV in the NV replicon harboring cells (HG23 cells). Briefly, confluent and semi-confluent HG23 cells were incubated with medium containing DMSO (<0.1%) or each compound (up to 200 uM) for 48 h. After the incubation, total RNA was extracted and viral genome was quantitated with real-time quantitative RT-PCR (qRT-PCR). The EC50 values were determined by GraphPadPrism software.

[3] = Table 1, ester prodrugs, average of at least two determinations, read-out: IC50 (50% inhibitory concentration in the enzyme assay)
[4] = Table 1, ester prodrugs, HG23 cells, 48 h, read-out: EC50 (50% effective concentration in cell culture)
[5] = Table 2, carbamate prodrugs, read-out: IC50
[6] = Table 2, carbamate prodrugs, HG23 cells, 48 h, read-out: EC50

Chain of norovirus 3CL protease (NV 3CLpro) (Q83883 1101-1281): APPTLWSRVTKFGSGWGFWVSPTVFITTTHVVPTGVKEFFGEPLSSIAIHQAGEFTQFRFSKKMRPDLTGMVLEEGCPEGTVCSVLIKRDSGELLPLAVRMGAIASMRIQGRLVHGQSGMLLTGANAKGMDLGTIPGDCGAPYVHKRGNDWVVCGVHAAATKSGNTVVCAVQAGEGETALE

Compound | IC50 [1, 3] | EC50 [2, 4] | other results
CC(=O)OC([C@H](C[C@@H]1CCNC1=O)NC(=O)[C@H](CC1CCCCC1)NC(=O)OCc1cccc(Cl)c1)S(=O)(=O)O (stereo partly drawn) [Compound 9, (5 S, 8S)-1-(3-Chlorophenyl)-5-(cyclohexylmethyl)-3,6,11-trioxo-8-(((S)-2-oxopyrrolidin-3-yl)methyl)-2,10-dioxa-4,7-diazadodecane-9-sulfonate] | 0.08 µM | 0.03 µM | –
CC(C)C[C@H](NC(=O)OCc1ccccc1)C(=O)N[C@@H](C[C@@H]1CCNC1=O)C(OC(=O)c1ccccc1)S(=O)(=O)O (stereo partly drawn) [Compound 7, (5S,8S)-5-Isobutyl-3,6,11-trioxo-8-(((S)-2-oxopyrrolidin-3-yl)methyl)-1,11-diphenyl-2,10-dioxa-4,7-diazaundecane-9-sulfonate] | 7.2 µM | 0.8 µM | –
COC(=O)C(C)NC(=O)OC([C@H](C[C@@H]1CCNC1=O)NC(=O)[C@H](CC1CCCCC1)NC(=O)OCc1ccccc1)S(=O)(=O)O (stereo partly drawn) [Compound 23, (5 S,8S)-5-(Cyclohexylmethyl)-13-methyl-3,6,11,14-tetraoxo-8-(((S)-2-oxopyrrolidin-3-yl)methyl)-1-phenyl-2,10,15-trioxa-4,7,12-triazahexadecane-9-sulfonate] | – | – | IC50 [1, 5]: 10.2 µM; EC50 [2, 6]: 0.2 µM
CC(C)C[C@H](NC(=O)OCc1ccccc1)C(=O)N[C@@H](C[C@@H]1CCNC1=O)C(O)S(=O)(=O)O (stereo partly shown) [Compound 24, reference compound] | – | – | IC50 ([1]; in μM, read-out: IC50): 0.8 µM; EC50 ([2]; Norovirus, HG23, given in M, read-out: EC50): 0.3 µM
CCCCCC(=O)OC([C@H](C[C@@H]1CCNC1=O)NC(=O)[C@H](CC(C)C)NC(=O)OCc1ccccc1)S(=O)(=O)O (stereo partly drawn) [Compound 5, (5 S, 8S)-5-Isobutyl-3,6,11-trioxo-8-(((S)-2-oxopyrrolidin-3-yl)methyl)-1-phenyl-2,10-dioxa-4,7-diazahexadecane-9-sulfonate] | 2.8 µM | 0.3 µM | –
CCC(=O)OC([C@H](C[C@@H]1CCNC1=O)NC(=O)[C@H](CC(C)C)NC(=O)OCc1ccccc1)S(=O)(=O)O (stereo partly drawn) [Compound 2, (5S,8S)-5-Isobutyl-3,6,11-trioxo-8-(((S)-2-oxopyrrolidin-3-yl)methyl)-1-phenyl-2,10-dioxa-4,7-diazatridecane-9-sulfonate] | 7.5 µM | 0.7 µM | –
COC(=O)C(C)NC(=O)OC([C@H](C[C@@H]1CCNC1=O)NC(=O)[C@H](CC(C)C)NC(=O)OCc1ccccc1)S(=O)(=O)O (stereo partly drawn) [Compound 19, (5 S,8S)-5-Isobutyl-13-methyl-3,6,11,14-tetraoxo-8-(((S)-2-oxopyrrolidin-3-yl)methyl)-1-phenyl-2,10,15-trioxa-4,7,12-triazahexadecane-9-sulfonate] | – | – | IC50 [1, 5]: 1.8 µM; EC50 [2, 6]: 0.3 µM
COC(=O)C(NC(=O)OC([C@H](C[C@@H]1CCNC1=O)NC(=O)[C@H](CC(C)C)NC(=O)OCc1ccccc1)S(=O)(=O)O)C(C)C (stereo partly drawn) [Compound 20, (5 S,8S)-5-Isobutyl-13-isopropyl-3,6,11,14-tetraoxo-8-(((S)-2-oxopyrrolidin-3-yl)methyl)-1-phenyl-2,10,15-trioxa-4,7,12-triazahexadecane-9-sulfonate] | – | – | IC50 [1, 5]: 2.5 µM; EC50 [2, 6]: 0.4 µM
CCCCCCCC(=O)OC([C@H](C[C@@H]1CCNC1=O)NC(=O)[C@H](CC(C)C)NC(=O)OCc1ccccc1)S(=O)(=O)O (stereo partly drawn) [Compound 6, (5S,8S)-5-Isobutyl-3,6,11-trioxo-8-(((S)-2-oxopyrrolidin-3-yl)methyl)-1-phenyl-2,10-dioxa-4,7-diazaoctadecane-9-sulfonate] | 3 µM | 0.5 µM | –
O=C(N[C@@H](CC1CCCCC1)C(=O)N[C@@H](C[C@@H]1CCNC1=O)C(OC(=O)C1CCCCC1)S(=O)(=O)O)OCc1cccc(Cl)c1 (stereo partly drawn) [Compound 14, (5 S,8S)-1-(3-Chlorophenyl)-11-cyclohexyl-5-(cyclohexylmethyl)-3,6,11-trioxo-8-(((S)-2-oxopyrrolidin-3-yl)methyl)-2,10-dioxa-4,7-diazaundecane-9-sulfonate] | 0.4 µM | 0.02 µM | –
CC(=O)OC([C@H](C[C@@H]1CCNC1=O)NC(=O)[C@H](CC(C)C)NC(=O)OCc1ccccc1)S(=O)(=O)O (stereo partly drawn) [Compound 1, (5S,8S)-5-Isobutyl-3,6,11-trioxo-8-(((S)-2-oxopyrrolidin-3-yl)methyl)-1-phenyl-2,10-dioxa-4,7-diazadodecane-9-sulfonate] | 10.5 µM | 0.6 µM | –
CCCCC(=O)OC([C@H](C[C@@H]1CCNC1=O)NC(=O)[C@H](CC(C)C)NC(=O)OCc1ccccc1)S(=O)(=O)O (stereo partly drawn) [Compound 4, (5S,8S)-5-Isobutyl-3,6,11-trioxo-8-(((S)-2-oxopyrrolidin-3-yl)methyl)-1-phenyl-2,10-dioxa-4,7-diazapentadecane-9-sulfonate] | 3.5 µM | 1.4 µM | –
CC(C)C(=O)OC([C@H](C[C@@H]1CCNC1=O)NC(=O)[C@H](CC1CCCCC1)NC(=O)OCc1cccc(Cl)c1)S(=O)(=O)O (stereo partly drawn) [Compound 13, (5 S, 8S)-1-(3-Chlorophenyl)-5-(cyclohexylmethyl)-12-methyl-3,6,11-trioxo-8-(((S)-2-oxopyrrolidin-3-yl)methyl)-2,10-dioxa-4,7-diazatridecane-9-sulfonate] | 0.3 µM | 0.03 µM | –
CCC(=O)OC([C@H](CC1CCNC1=O)NC(=O)[C@H](CC1CCCCC1)NC(=O)OCc1cccc(Cl)c1)S(=O)(=O)O (stereo partly shown) [Compound 10, (5 S, 8S)-1-(3-chlorophenyl)-5-(cyclohexylmethyl)-3,6,11-trioxo-8-((2-oxopyrrolidin-3-yl)methyl)-2,10-dioxa-4,7-diazatridecane-9-sulfonate] | 0.1 µM | 0.025 µM | –
CC(=O)OC([C@H](C[C@@H]1CCNC1=O)NC(=O)[C@H](CC1CCCCC1)NC(=O)OCc1ccccc1)S(=O)(=O)O (stereo partly drawn) [Compound 15, (5S,8S)-5-(Cyclohexylmethyl)-3,6,11-trioxo-8-(((S)-2-oxopyrrolidin-3-yl)methyl)-1-phenyl-2,10-dioxa-4,7-diazadodecane-9-sulfonate] | 7.5 µM | 0.2 µM | –
O=C(N[C@@H](CC1CCCCC1)C(=O)N[C@@H](C[C@@H]1CCNC1=O)C(OC(=O)C1CCCCC1)S(=O)(=O)O)OCc1ccccc1 (stereo partly drawn) [Compound 16, (5S,8S)-11-Cyclohexyl-5-(cyclohexylmethyl)-3,6,11-trioxo-8-(((S)-2-oxopyrrolidin-3-yl)methyl)-1-phenyl-2,10-dioxa-4,7-diazaundecane-9-sulfonate] | 0.6 µM | 0.06 µM | –
COC(=O)C(NC(=O)OC([C@H](C[C@@H]1CCNC1=O)NC(=O)[C@H](CC1CCCCC1)NC(=O)OCc1cccc(Cl)c1)S(=O)(=O)O)C(C)C (stereo partly drawn) [Compound 22, (5 S,8S)-1-(3-Chlorophenyl)-5-(cyclohexylmethyl)-13-isopropyl-3,6,11,14-tetraoxo-8-(((S)-2-oxopyrrolidin-3-yl)methyl)-2,10,15-trioxa-4,7,12-triazahexadecane-9-sulfonate] | – | – | IC50 [1, 5]: 0.5 µM; EC50 [2, 6]: 0.04 µM
CCCCCCOC(=O)OC([C@H](CC1CCNC1=O)NC(=O)[C@H](CC1CCCCC1)NC(=O)OCc1cccc(Cl)c1)S(=O)(=O)O (stereo partly shown) [Compound 17, (5 S, 8S)-1-(3-chlorophenyl)-5-(cyclohexylmethyl)-3,6,11-trioxo-8-((2-oxo-pyrrolidin-3-yl)methyl)-2,10,12-trioxa-4,7-diazaoctadecane-9-sulfonate] | 0.8 µM | 0.025 µM | –
CCCCCCCC(=O)OC([C@H](C[C@@H]1CCNC1=O)NC(=O)[C@H](CC1CCCCC1)NC(=O)OCc1cccc(Cl)c1)S(=O)(=O)O (stereo partly drawn) [Compound 12, (5 S, 8S)-1-(3-Chlorophenyl)-5-(cyclohexylmethyl)-3,6,11-trioxo-8-(((S)-2-oxopyrrolidin-3-yl)methyl)-2,10-dioxa-4,7-diazaoctadecane-9-sulfonate] | 0.9 µM | 0.03 µM | –
CCCC(=O)OC([C@H](C[C@@H]1CCNC1=O)NC(=O)[C@H](CC(C)C)NC(=O)OCc1ccccc1)S(=O)(=O)O (stereo partly drawn) [Compound 3, (5S,8S)-5-Isobutyl-3,6,11-trioxo-8-(((S)-2-oxopyrrolidin-3-yl)methyl)-1-phenyl-2,10-dioxa-4,7-diazatetradecane-9-sulfonate] | 3.7 µM | 1.3 µM | –
COC(=O)C(C)NC(=O)OC([C@H](C[C@@H]1CCNC1=O)NC(=O)[C@H](CC1CCCCC1)NC(=O)OCc1cccc(Cl)c1)S(=O)(=O)O (stereo partly drawn) [Compound 21, (5 S, 8S)-1-(3-Chlorophenyl)-5-(cyclohexylmethyl)-13-methyl-3,6,11,14-tetraoxo-8-(((S)-2-oxopyrrolidin-3-yl)methyl)-2,10,15-trioxa-4,7,12-triazahexadecane-9-sulfonate] | – | – | IC50 [1, 5]: 0.8 µM; EC50 [2, 6]: 0.025 µM
O=C[C@H](C[C@@H]1CCNC1=O)NC(=O)[C@H](CC1CCCCC1)NC(=O)OCc1cccc(Cl)c1 [Compound 25, reference compound] | – | – | EC50 ([2]; Norovirus, HG23, in μM, read-out: EC50): 0.02 µM
